Data reported in patent publication US5750702A (priority 1996, dated 1998).

Target: GABAa receptor
Assay: GABAa receptor binding assay (displacement of 3H-RO15-1788 [3H-Flumazenil], rat cortical tissue)
Conditions: nonspecific binding with diazepam
Experimental: The pharmaceutical utility of compounds of this invention are indicated by the following assay for GABAa receptor binding activity.
Assays are carried out as described in Thomas and Tallman (J. Bio. Chem. 156: 9838-9842 J. Neurosci. 3: 433-440, 1983). Rat cortical tissue is dissected and homogenized in 25 volumes (w/v) of 0.05M Tris HCl buffer (pH 7.4 at 4° C.). The tissue homogenate is centrifuged in the cold (4°) at 20,000×g for 20'. The supernatant is decanted and the pellet is rehomogenized in the same volume of buffer and again centrifuged at 20,000×g. The supernatant is decanted and the pellet is frozen at -20° C. overnight. The pellet is then thawed and rehomogenized in 25 volume (original wt/vol) of buffer and the procedure is carried out twice. The pellet is finally resuspended in 50 volumes (w/vol of 0.05M Tris HCl buffer (pH 7.4 at […]).
Incubations contain […] of tissue homogenate, […] of radioligand 0.5 nM (^3 H-RO15-1788 [^3 H-Flumazenil] specific activity 80 Ci/mmol), drug or blocker and buffer to a total volume of […]. Incubations are carried for 30 min at 4° C. then are rapidly filtered through GFB filters to separate free and bound ligand. Filters are washed twice with fresh 0.05M Tris HCl buffer (pH 7.4 at 4° C.) and counted in a liquid scintillation counter. 1.0 mM diazepam is added to some tubes to determine nonspecific binding. Data are collected in triplicate determinations, averaged and % inhibition of total specific binding is calculated. Total Specific Binding=Total-Nonspecific. In some cases, the amounts of unlabeled drugs is varied and total displacement curves of binding are carried out. Data are converted to Ki values.

[1] = Table 3, 0.5 nM 3H-RO15-1788, 30 min at 4° C.
[2] = Table 2, 0.5 nM 3H-RO15-1788, 30 min at 4° C.

| Structure (SMILES) | Ki [1] | Ki [2] |
| --- | --- | --- |
| Cc1ccc(NC(=O)c2c[nH]c3c2C(=O)CCC3)c(F)c1 [Compound 72, N-(2-Fluoro-4-methylphenyl)-4-oxo-4,5,6,7-tetrahydro-1H-indole-3-carboxamide] | 26 nM | – |
| O=C(Nc1ccccc1O)c1c[nH]c2c1C(=O)CCC2 [Compound 62, N-(2-Hydroxyphenyl)-4-oxo-4,5,6,7-tetrahydro-1H-indole-3-carboxamide] | 0.8 nM | – |
| CC(=O)Nc1ccc(NC(=O)c2c[nH]c3c2C(=O)CCC3)cc1 [Compound 12, N-(4-Acetamidophenyl)-4-oxo-4,5,6,7-tetrahydro-1H-indole-3-carboxamide] | – | 28 nM |
| CC1(C)CCc2[nH]cc(C(=O)Nc3ccc(O)cc3)c2C1=O [Compound 86, N-(4-Hydroxyphenyl)-4-oxo-5,5-dimethyl-4,5,6,7-tetrahydro-1H-indole-3-carboxamide] | 2 nM | – |
| CC(C)Oc1ccc(NC(=O)c2c[nH]c3c2C(=O)CCC3)cc1 [Compound 22, N-(4-Isopropoxyphenyl)-4-oxo-4,5,6,7-tetrahydro-1H-indole-3-carboxamide] | 53 nM | – |
| CC1(C)CCc2[nH]cc(C(=O)Nc3ccccc3F)c2C1=O [Compound 81, N-(2-Fluorophenyl)-4-oxo-5,5-dimethyl-4,5,6,7-tetrahydro-1H-indole-3-carboxamide] | 14 nM | – |
| COc1ccc(NC(=O)c2c[nH]c3c2C(=O)C(C)(C)CC3)c(F)c1 [Compound 30, N-(2-Fluoro-4-methoxyphenyl)-4-oxo-5,5-dimethyl-4,5,6,7-tetrahydro-1H-indole-3-carboxamide] | 10 nM | – |
| COc1ccc(NC(=O)c2c[nH]c3c2C(=O)CCC3)cc1 [Compound 1, N-(4-methoxyphenyl)-4-oxo-4,5,6,7-tetrahydro-1H-indole-3-carboxamide] | – | 4 nM |
| COc1ccc(NC(=O)c2c[nH]c3cccc(OC)c23)cc1 [Compound 8, N-(4-Methoxyphenyl)-4-methoxy-1H-indole-3-carboxamide] | – | 25 nM |
| COc1cccc(NC(=O)c2c[nH]c3c2C(=O)CCCC3)c1 [Compound 96, N-(3-Methoxyphenyl)-4-oxo-1,4,5,6,7,8-hexahydro-cyclohepta[b]pyrrole-3-carboxamide] | 29 nM | – |
| O=C(Nc1ccccc1)c1c[nH]c2c1C(=O)CCC2 [Compound 35, N-Phenyl-4-oxo-4,5,6,7-tetrahydro-1H-indole-3-carboxamide] | 2 nM | – |
| CNc1ccc(NC(=O)c2c[nH]c3c2C(=O)CCC3)cc1 [Compound 74, N-[4-(Methylamino)phenyl]-4-oxo-4,5,6,7-tetrahydro-1H-indole-3-carboxamide] | 18 nM | – |
| COc1ccc(NC(=O)c2c[nH]c3c2C(=O)CCC3)c(F)c1 [Compound 6, N-(2-Fluoro-4-methoxyphenyl)-4-oxo-4,5,6,7-tetrahydro-1H-indole-3-carboxamide] | – | 1 nM |
| CCOc1ccc(NC(=O)c2c[nH]c3c2C(=O)CCCC3)c(F)c1 [Compound 102, N-(2-Fluoro-4-ethoxyphenyl)-4-oxo-1,4,5,6,7,8-hexahydro-cyclohepta[b]pyrrole-3-carboxamide] | 37 nM | – |
| COc1ccc(NC(=O)c2c[nH]c3cccc(OCc4ccccc4)c23)c(F)c1 [Compound 14, N-(2-Fluoro-4-methoxyphenyl)-4-benzyloxy-1H-indole-3-carboxamide] | – | 133 nM |
| CC1(C)CCc2[nH]cc(C(=O)Nc3ccccc3)c2C1=O [Compound 80, N-Phenyl-4-oxo-5,5-dimethyl-4,5,6,7-tetrahydro-1H-indole-3-carboxamide] | 31 nM | – |
| O=C(Nc1ccccc1F)c1c[nH]c2c1C(=O)CCC2 [Compound 46, N-(2-Fluorophenyl)-4-oxo-4,5,6,7-tetrahydro-1H-indole-3-carboxamide] | 3 nM | – |
| O=C(Nc1ccccc1F)c1c[nH]c2c1C(=O)CCCC2 [Compound 93, N-(2-Fluorophenyl)-4-oxo-1,4,5,6,7,8-hexahydro-cyclohepta[b]pyrrole-3-carboxamide] | 6 nM | – |
| COc1ccc(NC(=O)c2c[nH]c3c2C(=O)CCC3)cc1F [Compound 26, N-(3-Fluoro-4-methoxyphenyl)-4-oxo-4,5,6,7-tetrahydro-1H-indole-3-carboxamide] | 3 nM | – |
| COc1ccc(NC(=O)c2c[nH]c3cccc(O)c23)c(F)c1 [Compound 2, N-(2-fluoro-4-methoxyphenyl)-4-hydroxy-1H-indole-3-carboxamide] | – | 430 nM |
